Source: US11338007B2, “Combination formulation of three antiviral compounds” (priority 2016, dated 2022)

Columns and labels:
[1] = Physical stability of tablets spiked with crystalline voxilaprevir Form VIII and Form X (Tables 22, 23); assay type: physicochemical; details: in tablets in the presence of pre-existing crystalline voxilaprevir
Description: For each of the impact studies, the sofosbuvir/velpatasvir SSD/voxilaprevir SSD tablets were packaged in a designated commercial packaging configuration (28-count, 100 mL HPDE bottle, coil, 1 g desiccant), and stored for 12 weeks at 25° C./60% RH and 40° C./75% RH. Tablets were also packaged in open containers (28-count, 100 mL HPDE bottle without cap) and stored for 4 weeks at 40° C./75% RH and for 1 week at 50° C./92% RH.
The impact of crystalline voxilaprevir Form VIII and Form X seeds on the physical stability and dissolution of sofosbuvir/velpatasvir SSD/voxilaprevir SSD tablets was evaluated (Tables 22 and 23). As described in Table 22, sofosbuvir/velpatasvir SSD/voxilaprevir SSD tablets Lots A and B were spiked with 5 and 10% w/w Form VIII (% w/w with respect to total voxilaprevir), respectively. Sofosbuvir/velpatasvir SSD/voxilaprevir SSD tablets Lots C and D, as described in Table 23, were spiked with 10 and 20% w/w Form X (% w/w with respect to total voxilaprevir), respectively.

[2] = Relative bioavailability of voxilaprevir amorphous free acid tablets vs Form VI tablets, fasted and fed, healthy subjects (Table 3); assay type: in vivo, human
Text: Accordingly, a spray dried dispersion of voxilaprevir in the amorphous free acid form was selected for incorporation into the tablet formulation.

[3] = Aqueous solubility of voxilaprevir Form VIII relative to Form VI; assay type: physicochemical
[4] = 100 mg tablets, healthy subjects

Row | higher Cmax compared to Form VI tablets (2×50 mg) [2, 4] | higher exposure (AUC) compared to Form VI tablets (2×50 mg) [2, 4] | Cmax ([2]; single dose 100 mg, healthy subjects, fed (with moderate food)) | Geometric Least Square Ratio Amorphous Free Acid/Form VI GMR, AUCinf ([2]; single dose, fasted) | Geometric Least Square Ratio Amorphous Free Acid/Form VI GMR, Cmax ([2]; single dose, fasted) | aqueous solubility, less than that of crystalline Form VI [3] | SMILES | tendency to crystallize [1]
1 | – | – | – | – | – | – | COC[C@H]1C[C@@H](c2ncc(-c3ccc4c(c3)COc3cc5c(ccc6nc([C@@H]7CC[C@H](C)N7C(=O)[C@@H](NC(=O)OC)C(C)C)[nH]c65)cc3-4)[nH]2)N(C(=O)[C@H](NC(=O)OC)c2ccccc2)C1 [amorphous velpatasvir free base, velpatasvir] | no tendency to crystallize
2 | ~43% | approximately 9% | 44.2 ng/mL | 1.09 | 1.43 | – | CC[C@@H]1[C@@H]2CN(C(=O)[C@H](C(C)(C)C)NC(=O)O[C@@H]3C[C@H]3CCCCC(F)(F)c3nc4ccc(OC)cc4nc3O2)[C@@H]1C(=O)N[C@]1(C(=O)NS(=O)(=O)C2(C)CC2)C[C@H]1C(F)F [Amorphous Free Acid, voxilaprevir] | no tendency to crystallize
3 | – | – | – | – | – | approximately 50% | CC[C@@H]1[C@@H]2CN(C(=O)[C@H](C(C)(C)C)NC(=O)O[C@@H]3C[C@H]3CCCCC(F)(F)c3nc4ccc(OC)cc4nc3O2)[C@@H]1C(=O)N[C@]1(C(=O)NS(=O)(=O)C2(C)CC2)C[C@H]1C(F)F [Form VIII, voxilaprevir] | –
